Activity and pH data for 5 compounds are collected here from ChEMBL document CHEMBL4619763 (J Nat Prod, 2020).

The source made the active and inactive calls. No cut-off for these calls is given here.

Data set [1] has as its system Rattus norvegicus. Nature of the data set: Diuretic activity in normotensive Wistar rat assessed as urinary sodium excretion at 3 mg/kg, po administered via gavage after 8 hrs (reference value: 61.82 to 80.81 mmol/L). The class given is functional.
Data set [2] deals with Rattus norvegicus. In words: Diuretic activity in normotensive Wistar rat assessed as urine conductivity at 3 mg/kg, po administered via gavage after 8 hrs (reference value: 19.54 +/- 0.98 mS/cm). Type of data set: functional.
Data set [3] concerns Rattus norvegicus. In words: Diuretic activity in normotensive Wistar rat assessed as urine pH at 3 mg/kg, po administered via gavage after 8 hrs (reference value: 6.14 to 6.21). Type of data set: functional.
Data set [4] has as its system Rattus norvegicus. Nature of the data set: Diuretic activity in normotensive Wistar rat assessed as urinary calcium excretion at 3 mg/kg, po administered via gavage after 8 hrs (reference value: 5.93 to 6.87 mg/dl). Type of data set: functional.
Data set [5] relates to Rattus norvegicus. In words: Diuretic activity in normotensive Wistar rat assessed as urinary chloride excretion at 3 mg/kg, po administered via gavage after 8 hrs (reference value: 135.10 to 143.70 mmol/L). Type of data set: functional.
Data set [6] has as its system Rattus norvegicus. In words: Diuretic activity in normotensive Wistar rat assessed as urine pH at 20 mg/kg, po administered via gavage after 8 hrs (reference value: 6.14 to 6.21). Type of data set: functional.
For data set [7], the system named is Rattus norvegicus. Nature of the data set: Renal protective activity in spontaneous hypertensive Wistar rat assessed as reduction in hypertension-induced Bowman's capsule thickening at 10 mg/kg, po administered via gavage for 7 days by hematoxylin and eosin staining based microscopic analysis. Type of data set: functional, organism-based.
Data set [8] deals with Rattus norvegicus. Nature of the data set: In vivo antioxidant activity in Wistar rat model of hypertension-induced oxidative stress assessed as reduction in nitrite level in renal tissue at 10 mg/kg, po administered via gavage for 7 days by Griess reagent based assay. The class given is functional, organism-based. In general terms: Griess reagent forms a coloured azo dye with nitrite.

Data set [9] concerns Rattus norvegicus. In words: In vivo antioxidant activity in Wistar rat model of hypertension-induced oxidative stress assessed as reduction in reactive oxygen species generation in renal tissue at 10 mg/kg, po administered via gavage for 7 days by DCFH-DA probe based fluorimetric assay. The class given is functional, organism-based.
In data set [10] the test system is Rattus norvegicus. Nature of the data set: Anti-urolithic activity in normotensive Wistar rats assessed as reduction in CaOx crystal formation in cumulative urine at 10 mg/kg, po administered via gavage in presence of sodium oxalate by Neubauer counting chamber method relative to control. More on the design: scale not given: the % may be the effect or the level left. Type of data set: functional.

The subject of data set [11] is Rattus norvegicus. In words: Diuretic activity in spontaneous hypertensive Wistar rat assessed as increase in urine volume at 10 mg/kg, po administered via gavage for 7 days. The class given is functional, organism-based.
In data set [12] the test system is Rattus norvegicus. In words: Renal protective activity in spontaneous hypertensive Wistar rat assessed as reduction in hypertension-induced glomerular size at 10 mg/kg, po administered via gavage for 7 days by hematoxylin and eosin staining based microscopic analysis. The class given is functional, organism-based.
For data set [13], the system named is Rattus norvegicus. Nature of the data set: Diuretic activity in normotensive Wistar rat assessed as urinary potassium excretion at 10 mg/kg, po administered via gavage after 8 hrs (reference value: 22.39 to 24.21 mmol/L). Type of data set: ADME, organism-based. The conditions noted are these: in vivo.
Data set [14] concerns Rattus norvegicus. In words: Diuretic activity in spontaneous hypertensive Wistar rat assessed as increase in urinary sodium excretion at 10 mg/kg, po administered via gavage for 7 days. Type of data set: functional, organism-based.
In data set [15] the test system is Rattus norvegicus. Nature of the data set: Anti-urolithic activity in spontaneous hypertensive Wistar rats assessed as reduction in CaOx crystal formation in cumulative urine at 10 mg/kg, po administered via gavage in presence of sodium oxalate by Neubauer counting chamber method relative to control. More on the design: scale not given: the % may be the effect or the level left. Type of data set: functional.

The test system of data set [16] is Rattus norvegicus. In words: Diuretic activity in normotensive Wistar rat assessed as increase in urine volume at 10 mg/kg, po administered via gavage for 7 days. Type of data set: functional, organism-based.
The subject of data set [17] is Rattus norvegicus. In words: Diuretic activity in spontaneous hypertensive Wistar rat assessed as decrease in urinary calcium excretion at 10 mg/kg, po administered via gavage for 7 days. Type of data set: functional, organism-based.
In data set [18] the test system is Rattus norvegicus. Nature of the data set: Diuretic activity in normotensive Wistar rat assessed as urinary sodium excretion at 10 mg/kg, po administered via gavage after 8 hrs (reference value: 61.82 to 80.81 mmol/L). The class given is functional.
The subject of data set [19] is Rattus norvegicus. In words: Diuretic activity in normotensive Wistar rat assessed as increase in urinary potassium excretion at 10 mg/kg, po administered via gavage for 7 days. The class given is ADME, organism-based. The following applies: in vivo, 168 h.
Data set [20] deals with Rattus norvegicus. In words: Renal protective activity in spontaneous hypertensive Wistar rat assessed as reduction in hypertension-induced mesangial space disarrangement at 10 mg/kg, po administered via gavage for 7 days by hematoxylin and eosin staining based microscopic analysis. Type of data set: functional, organism-based.
Data set [21] concerns Rattus norvegicus. In words: Diuretic activity in normotensive Wistar rat assessed as decrease in urinary calcium excretion at 10 mg/kg, po administered via gavage for 7 days. The class given is functional, organism-based.
Data set [22] concerns Rattus norvegicus. In words: Diuretic activity in normotensive Wistar rat assessed as urinary chloride excretion at 10 mg/kg, po administered via gavage after 8 hrs (reference value: 135.10 to 143.70 mmol/L). The class given is functional.
Data set [23] relates to Rattus norvegicus. Nature of the data set: Diuretic activity in normotensive Wistar rat assessed as increase in urinary sodium excretion at 10 mg/kg, po administered via gavage for 7 days. Type of data set: functional, organism-based.
Data set [24] deals with Rattus norvegicus. In words: Diuretic activity in spontaneous hypertensive Wistar rat assessed as increase in urinary potassium excretion at 10 mg/kg, po administered via gavage for 7 days. Type of data set: ADME, organism-based. The conditions noted are these: in vivo, 168 h.
For data set [25], the system named is Rattus norvegicus. In words: Diuretic activity in normotensive Wistar rat assessed as urine conductivity at 10 mg/kg, po administered via gavage after 8 hrs (reference value: 19.54 +/- 0.98 mS/cm). The class given is functional.
The subject of data set [26] is Rattus norvegicus. In words: Diuretic activity in spontaneous hypertensive Wistar rat assessed as increase in urinary chloride excretion at 10 mg/kg, po administered via gavage for 7 days. The class given is functional, organism-based.
For data set [27], the system named is Rattus norvegicus. In words: Diuretic activity in normotensive Wistar rat assessed as urinary calcium excretion at 10 mg/kg, po administered via gavage after 8 hrs (reference value: 5.93 to 6.87 mg/dl). The class given is functional.
For data set [28], the system named is Rattus norvegicus. In words: Diuretic activity in normotensive Wistar rat assessed as increase in urinary chloride excretion at 10 mg/kg, po administered via gavage for 7 days. Type of data set: functional, organism-based.
The test system of data set [29] is Rattus norvegicus. In words: Diuretic activity in normotensive Wistar rat assessed as modification of urinary sodium excretion at 0.1 to 1 mg/kg, po administered via gavage measured up to 8 hrs. The class given is functional, organism-based.
For data set [30], the system named is Rattus norvegicus. Nature of the data set: Diuretic activity in normotensive Wistar rat assessed as modification of urinary calcium excretion at 0.1 to 1 mg/kg, po administered via gavage measured up to 8 hrs. The class given is functional, organism-based.
The subject of data set [31] is Rattus norvegicus. In words: Diuretic activity in normotensive Wistar rat assessed as increase in urine volume excretion at 0.1 to 1 mg/kg, po administered via gavage measured up to 8 hrs. Type of data set: functional, organism-based.
Data set [32] relates to Rattus norvegicus. In words: Diuretic activity in normotensive Wistar rat assessed as modification of urinary potassium excretion at 0.1 to 1 mg/kg, po administered via gavage measured up to 8 hrs. The class given is ADME, organism-based. The following applies: in vivo.
Data set [33] deals with Rattus norvegicus. In words: Diuretic activity in normotensive Wistar rat assessed as increase in urine volume excretion at 0.1 to 1 mg/kg, ip measured up to 8 hrs. The class given is functional, organism-based.
For data set [34], the system named is Rattus norvegicus. In words: Diuretic activity in normotensive Wistar rat assessed as modification of urinary chloride excretion at 0.1 to 1 mg/kg, po administered via gavage measured up to 8 hrs. Type of data set: functional, organism-based.
Data set [35] is described as follows: Anti-urolithic activity in synthetic urine assessed as decrease in absorbance at 10 mg/mL after 60 mins relative to control. Details: scale not given: the % may be the effect or the level left. Type of data set: functional.
The nature of data set [36]: Anti-urolithic activity in synthetic urine assessed as decrease in absorbance at 10 mg/mL relative to control. The class given is functional. More on the design: scale not given: the % may be the effect or the level left.
The nature of data set [37]: Anti-urolithic activity in synthetic urine assessed as decrease in absorbance at 10 mg/mL after 30 mins relative to control. Type of data set: functional. More on the design: scale not given: the % may be the effect or the level left.
A short description of data set [38]: Anti-urolithic activity in synthetic urine assessed as reduction in CaOx crystal formation at 10 mg/mL in presence of sodium oxalate after 60 mins by Neubauer counting chamber method relative to control. More on the design: scale not given: the % may be the effect or the level left. Type of data set: functional.

For the compound `N=C(N)NC(=O)c1nc(Cl)c(N)nc1N` [AMILORIDE], the Activity with Rattus norvegicus [1] is 117.2 mmol/L; in the data set on Rattus norvegicus [2], 18.23 mS/cm; with Rattus norvegicus [4], 5.7 mg/dL; with Rattus norvegicus [5] it was 170.5 mmol/L. For the same compound, the pH in the data set with Rattus norvegicus [3] stood at 6.29.
In the case of `NS(=O)(=O)c1cc(C(=O)O)c(NCc2ccco2)cc1Cl` [FUROSEMIDE], the pH with Rattus norvegicus [6] is 6.12.
In the case of `NS(=O)(=O)c1cc2c(cc1Cl)NCNS2(=O)=O` [HYDROCHLOROTHIAZIDE], the result in the data set with Rattus norvegicus [7], with Rattus norvegicus [8], with Rattus norvegicus [9], in the data set on Rattus norvegicus [11], in the data set with Rattus norvegicus [12] and in the data set on Rattus norvegicus [14] was Active. In addition, the result in the data set with Rattus norvegicus [16], in the data set with Rattus norvegicus [17], with Rattus norvegicus [20], in the data set on Rattus norvegicus [21], with Rattus norvegicus [23] and in the data set on Rattus norvegicus [26] was Active. Besides, the result in the data set with Rattus norvegicus [28] was Active. The Activity in the data set on Rattus norvegicus [10] was 89.04%; in the data set with Rattus norvegicus [13], 41 to 44.8 mmol/L; in the data set on Rattus norvegicus [15] it was 92.9%; in the data set with Rattus norvegicus [18], 175.7 to 185.7 mmol/L; in the data set with Rattus norvegicus [19], “Toxic”; in the data set with Rattus norvegicus [22], 279.8 to 286.6 mmol/L. Besides, the Activity result in the data set with Rattus norvegicus [24] is “Toxic”; in the data set on Rattus norvegicus [25], 23.62 - 27.3 mS/cm; with Rattus norvegicus [27] it was 4.78 to 5.24 mg/dL.
Turning to `O=c1c(O)c(-c2ccc(O)cc2)oc2cc(O)cc(O)c12` [KAEMPFEROL], the outcome in the data set on Rattus norvegicus [29], in the data set on Rattus norvegicus [30], in the data set with Rattus norvegicus [31], with Rattus norvegicus [33] and in the data set on Rattus norvegicus [34] was inactive. Moreover, in the data set on Rattus norvegicus [32], the Activity result is “Non-Toxic”.
For the compound `O=C([O-])CC(O)(CC(=O)[O-])C(=O)[O-].[K+].[K+].[K+]` [POTASSIUM CITRATE ANHYDROUS], the Activity in data set [35] came out at 64.85%; in [36], 81.73%; in [37], 70.41%; in data set [38], 65.02%.
